# Experimental data: patent US20260027214A1, “PHARMACEUTICAL COMPOSITION FOR TREATING OR PREVENTING INFLAMMATION CAUSED BY ACANTHAMOEBA” (priority 2022, published 2026)
# Tests used:
# Acanthamoeba polyphaga [1] = assay: Adhesion test: Acanthamoeba adhered to polypropylene test pieces after 60 min immersion; assay type: cell-based
# Description: (§1) An Acanthamoeba solution containing 1×10^5 Acanthamoeba per mL of solution was prepared by dispersing Acanthamoeba (Acanthamoeba polyphaga, obtained from American Type Culture Collection (ATCC), 30872™) in phosphate-buffered saline as solvent.
# (§2) The polypropylene test pieces used in the adhesion test described below were polypropylene from Johoku Co., Ltd., product number: PP_A3, cut to dimensions of 15 mm length×15 mm width×0.25 mm thickness from original dimensions of 320 mm length×440 mm width×0.25 mm thickness for each experiment.
# (§3) To verify the anti-adhesive properties and antiprotozoal activity of the lysozyme-chitosan complex (LYZOX (registered trademark)), adhesion tests and cell death tests were conducted.
# (§4) Specifically, the above-mentioned Acanthamoeba solution was added to the above-mentioned lysozyme-chitosan complex (LYZOX (registered trademark)) solution to prepare mixed solutions containing 0.1 μg, 1 μg, 10 μg, 100 μg, and 1000 μg of lysozyme-chitosan complex per 1 mL of mixed solution. Separately, a control solution with 0 μg/mL concentration containing no lysozyme-chitosan complex was prepared. The same sterilized water used in preparing the lysozyme-chitosan complex was used as dilution liquid for concentration adjustment. All six solutions contained 1×10^5 Acanthamoeba per 1 mL of solution.
# (§5) The above-mentioned polypropylene test pieces were immersed in the prepared mixed solutions and left standing; after 60 minutes of immersion, the test pieces were removed from the mixed solutions, washed with phosphate-buffered saline (PBS, obtained from FUJIFILM Wako Pure Chemical Corporation, product number: 166-23555), and dried. The surface of the obtained test pieces was observed under a biological microscope (obtained from Nikon, product number: ECLIPSE E-200), and Acanthamoeba adhered within a 5×5 mm observation area on the test piece surface were counted. Subsequently, trypan blue was applied to the observation area, staining dead Acanthamoeba, and the number of dead Acanthamoeba was counted.
# (§6) Acanthamoeba were counted and the total number of adhered Acanthamoeba, number of dead Acanthamoeba, and Acanthamoeba mortality rate were measured in the same manner as Experimental Example 1, except that the mixture solution of lysozyme and chitosan (Table 2), lysozyme alone (Table 3), and chitosan alone (Table 4) described above were used instead of the lysozyme-chitosan complex (LYZOX (registered trademark)) solution of Experimental Example 1.
# Acanthamoeba polyphaga [2] = assay: Cell death test: trypan blue staining of adhered Acanthamoeba; assay type: cell-based; conditions: for Acanthamoeba mortality rate: 60 min immersion, 1×10^5 Acanthamoeba/mL; for Acanthamoeba inhibition effects (antiprotozoal effects): in words, compared with complex at 100 μg/mL and 1000 μg/mL
# Description: as §1, §2, §3, §4, §5, §6
Substance,"Total number of adhered Acanthamoeba (Acanthamoeba polyphaga [1]; 0.05 μg/mL, 1×10^5 Acanthamoeba/mL (Table 4)) [count/mm2]","Total number of adhered Acanthamoeba (Acanthamoeba polyphaga [1]; 0.5 μg/mL, 1×10^5 Acanthamoeba/mL (Table 4)) [count/mm2]","Total number of adhered Acanthamoeba (Acanthamoeba polyphaga [1]; 5 μg/mL, 1×10^5 Acanthamoeba/mL (Table 4)) [count/mm2]","Total number of adhered Acanthamoeba (Acanthamoeba polyphaga [1]; 50 μg/mL, 1×10^5 Acanthamoeba/mL (Table 4)) [count/mm2]","Total number of adhered Acanthamoeba (Acanthamoeba polyphaga [1]; 500 μg/mL, 1×10^5 Acanthamoeba/mL (Table 4)) [count/mm2]",Acanthamoeba mortality rate (Acanthamoeba polyphaga [2]; 0.05 μg/mL) [%],Acanthamoeba mortality rate (Acanthamoeba polyphaga [2]; 0.5 μg/mL) [%],Acanthamoeba mortality rate (Acanthamoeba polyphaga [2]; 5 μg/mL) [%],Acanthamoeba mortality rate (Acanthamoeba polyphaga [2]; 50 μg/mL) [%],Acanthamoeba mortality rate (Acanthamoeba polyphaga [2]; 500 μg/mL) [%],Acanthamoeba inhibition effects (antiprotozoal effects) (Acanthamoeba polyphaga [2]),"Total number of adhered Acanthamoeba (Acanthamoeba polyphaga [1]; 0.05 μg/mL, 1×10^5 Acanthamoeba/mL) [count/mm^2]","Total number of adhered Acanthamoeba (Acanthamoeba polyphaga [1]; 0.5 μg/mL, 1×10^5 Acanthamoeba/mL) [count/mm^2]","Total number of adhered Acanthamoeba (Acanthamoeba polyphaga [1]; 5 μg/mL, 1×10^5 Acanthamoeba/mL) [count/mm^2]","Total number of adhered Acanthamoeba (Acanthamoeba polyphaga [1]; 50 μg/mL, 1×10^5 Acanthamoeba/mL) [count/mm^2]","Total number of adhered Acanthamoeba (Acanthamoeba polyphaga [1]; 500 μg/mL, 1×10^5 Acanthamoeba/mL) [count/mm^2]"
poly-β1→4-glucosamine [Chitosan],108,89.2,82.1,65.3,49.7,3.5,3.8,3.9,7.9,37.4,incomplete,,,,,
Lysozyme: egg white lysozyme with molecular weight of approximately 14300 (Biocon (Japan) Ltd.),,,,,,,,,,,incomplete,119,94.2,87.2,67.8,42.1
